Patent US9763992B2, “Treatment of noise induced hearing loss” (Father Flanagan's Boys' Home, priority 2014, dated 2017)

Tests used:
[1] = system: noise-induced hearing loss (NIHL) in CBA mice; assay: ABR threshold recovery after traumatizing noise exposure in mice; type: in vivo, mouse
Protocol: (§1) To determine if the glatiramer acetate (GA) prevents or reduces hearing loss in mice following exposure to traumatizing noise, following determination of baseline acoustic thresholds (i.e., pre-noise exposure thresholds), hearing sensitivity and input-output relationships was assessed during the post-noise exposure period using auditory evoked brainstem responses (ABRs) and distortion product otoacoustic emissions (DPOAEs); DPOAEs were studied using the same protocol as in ABR-based studies to separate findings associated with neural and sensory outcomes. Responses to tone burst stimuli was acquired immediately following noise exposure, daily during the early post-exposure period, and intermittently thereafter for six (6) months to generally assess the long-term outcome of exposure to traumatizing noise in CBA mice. Morphological correlates of final treatment outcomes, including sensory and support cell (cytocochleograms), synapses between hair cells and spiral ganglion dendrites, and SGN survival estimates, was made at the end of the acute phase (2 months following noise exposure) or at 6 months to assess long-term outcomes.
The traumatizing noise used in CBA mouse studies was an octave band of white noise centered on 11.3 kHz and was presented at 109 dB SPL for 30 min. Because of well-documented differences in the abilities of males and females to mount inflammatory responses, both males and females were included in this investigation.
In mice, GA (100 mg/kg) was administered following two treatment strategies. In Group 1, GA was administered in sequential doses one month and one week prior to noise exposure (the “protection” approach), with supplementary doses on a daily basis for the first 4 days following noise exposure and again on the 7th and 14th post-exposure days in mice, to determine if GA can prevent permanent hearing loss associated with traumatizing noise. In Group 2, GA was administered only during the post-noise exposure period in an effort to determine if GA can rescue hearing following acute trauma. In a subset of animals, GA was administered prior to noise exposure and then daily for the first ten post-exposure days. Complete Freund's adjuvant will be used to deliver the first dose of the agent to determine if GA actions might be potentiated (boosted) when delivered in an emulsified form in a separate group of mice.
An example of findings associated with this experimental design is shown in FIG. 2, in which families of ABR threshold-frequency curves (audiograms) generated by tracking sensitivity according to the “protection” protocol reviewed above in a GA-treated animal (right panel) and a saline-treated control (left panel) that were exposed to noise simultaneously are shown.
With this example, to determine if treatment with GA alone reduces the amount of temporary and permanent hearing loss and/or accelerates the rate of recovery from temporary threshold shift (TTS), groups of mice received GA or saline and were evaluated as described above.

TNF-alpha = assay: qRT-PCR cytokine expression after noise exposure: TNF-alpha; type: in vivo, mouse; settings: GA-treated mice, 10 days following noise exposure (Group 1), FIG. 7
Protocol: (§2) To determine if GA affects cytokine expression, groups of mice received GA as described above, and cytokine expression was evaluated via RT-PCR.
(§3) Using RT-PCR, the effects of GA on cytokine expression in the cochlea, specifically those mediators associated with pro- or anti-inflammatory activity, was established.

IL-17 = assay: qRT-PCR cytokine expression after noise exposure: IL-17; type: in vivo, mouse; settings: GA-treated mice, 10 days following noise exposure (Group 1), FIG. 7
Protocol: as §2, §3

[2] = system: noise-induced hearing loss (NIHL) in CBA mice; assay: DPOAE input-output curves (outer hair cell function) after noise exposure in mice; type: in vivo; settings: one GA-treated mouse relative to saline-treated; 14 days following noise exposure; f2=11.3 kHz; FIG. 4
Protocol: as §1
The traumatizing noise used in CBA mouse studies was an octave band of white noise centered on 11.3 kHz and was presented at 109 dB SPL for 30 min. […]

interferon-gamma = assay: qRT-PCR cytokine expression after noise exposure: interferon-gamma; type: in vivo, mouse; settings: GA-treated mice, 10 days following noise exposure (Group 1), spleen tissues, FIG. 6
Protocol: (§4) To determine if GA affects cytokine expression, groups of mice received GA as described above, and cytokine expression was evaluated via RT-PCR. […]

IL-2 = assay: qRT-PCR cytokine expression after noise exposure: IL-2; type: in vivo, mouse; settings: GA-treated mice, 10 days following noise exposure (Group 1), FIG. 7
Protocol: as §2, §3

TGF-β = assay: qRT-PCR cytokine expression after noise exposure: TGF-β; type: in vivo, mouse; settings: GA-treated mice, spleen tissues
Protocol: as §2, §3

IL-4 = assay: qRT-PCR cytokine expression after noise exposure: IL-4; type: in vivo, mouse; settings: GA-treated mice, 10 days following noise exposure (Group 1), spleen tissues, FIG. 6
Protocol: as §4

## Glatiramer acetate [GA]
[1]; GA cohort, control animals approximately 17 dB, FIG. 5
  Total extent of recovery following exposure (cohort): ~25 dB
[1]; GA-treated mice with at least 3.4-fold IL-4 increase, stimulus frequencies within the noise band (8.0, 11.3 and 16.0 kHz), FIG. 9
  Threshold recovery during the first 10 days following exposure relative to saline-treated controls and GA-treated mice below criterion: greater
[1]; GA-treated mice with at least 3.4-fold increase in IL-4 expression (criterion), FIG. 8
  Overall threshold recovery from NIHL relative to saline-treated controls and GA-treated mice below criterion: significantly greater
[1]; P<0.05
  Recovery with GA treatment alone compared with saline controls: significantly enhanced
[1]; one GA-treated mouse, protection protocol, GA 100 mg/kg, frequencies at and immediately above noise centre frequency 11.3 kHz, first 14 days after exposure, FIG. 2, 3
  Recovery from NIHL (ABR threshold-frequency curves): nearly complete
TNF-alpha
  TNF-α expression: down-regulated
IL-17
  IL-17 expression: down-regulated
[2]
  Recovery of outer hair cell (OHC) function, DPOAE input-output curves: nearly complete recovery
interferon-gamma
  Interferon-gamma expression, reduction re controls: 66%
IL-2
  IL-2 expression: down-regulated
TGF-β
  TGF-β expression: up-regulation
IL-4
  Expression of anti-inflammatory cytokine IL-4, fold greater than controls: 2.6 fold
